Like-named read-outs stand apart in the source and are kept apart here.
Tests used:
[1] = molecular target: T1, panel of 371 human kinases (Homo sapiens, UniProt O43353); experiment: Radiolabeled ATP kinase assay, panel of 371 kinases (Table S6); assay type: biochemical; conditions: RIPK2; 0.1 μM; 10 μM ATP; read-out: % Enzyme Activity (relative to DMSO controls)
T1 construct: purchased Reaction Biology Corp
Description: (§1) ; FIG. 38C). […]. Further targeted analyses, such as genetic knock-down or knock-out, may be warranted to parse the role of these additional kinases in our model of neurodegeneration.

[2] = molecular target: T2, panel of 371 human kinases (Homo sapiens, UniProt O95819); experiment: as above; assay type: biochemical; conditions: for remaining activity at 0.1 µM: HGK/MAP4K4, 10 μM ATP, read-out: % Enzyme Activity (relative to DMSO controls)
T2 construct: purchased Reaction Biology Corp
Description: as §1

[3] = molecular target: T3, panel of 371 human kinases (Homo sapiens, UniProt P00519); experiment: as above; assay type: biochemical; conditions: ABL1; 0.1 μM; 10 μM ATP; read-out: % Enzyme Activity (relative to DMSO controls)
T3 construct: purchased Reaction Biology Corp
Description: as §1

[4] = molecular target: T4, panel of 371 human kinases (Homo sapiens, UniProt P04049); experiment: as above; assay type: biochemical; conditions: RAF1; 0.1 μM; 10 μM ATP; read-out: % Enzyme Activity (relative to DMSO controls)
T4 construct: purchased Reaction Biology Corp
Description: as §1

[5] = molecular target: T5, panel of 371 human kinases (Homo sapiens, UniProt P04629); experiment: as above; assay type: biochemical; conditions: TRKA; 0.1 μM; 10 μM ATP; read-out: % Enzyme Activity (relative to DMSO controls)
T5 construct: purchased Reaction Biology Corp
Description: as §1

[6] = molecular target: T6, panel of 371 human kinases (Homo sapiens, UniProt P07333); experiment: as above; assay type: biochemical; conditions: FMS; 0.1 μM; 10 μM ATP; read-out: % Enzyme Activity (relative to DMSO controls)
T6 construct: purchased Reaction Biology Corp
Description: as §1

[7] = molecular target: T7, panel of 371 human kinases (Homo sapiens, UniProt P24941); experiment: as above; assay type: biochemical; conditions: 0.1 μM, 10 μM ATP, read-out: % Enzyme Activity (relative to DMSO controls)
T7 construct: purchased Reaction Biology Corp
Description: as §1

[8] = molecular target: T8, panel of 371 human kinases (Homo sapiens, UniProt P27361); experiment: as above; assay type: biochemical; conditions: ERK1; 0.1 μM; 10 μM ATP; read-out: % Enzyme Activity (relative to DMSO controls)
T8 construct: purchased Reaction Biology Corp
Description: as §1

[9] = molecular target: T9, panel of 371 human kinases (Homo sapiens, UniProt P29323); experiment: as above; assay type: biochemical; conditions: EPHB2; 0.1 μM; 10 μM ATP; read-out: % Enzyme Activity (relative to DMSO controls)
T9 construct: purchased Reaction Biology Corp
Description: as §1

[10] = molecular target: T10, panel of 371 human kinases (Homo sapiens, UniProt P30530); experiment: as above; assay type: biochemical; conditions: AXL; 0.1 μM; 10 μM ATP; read-out: % Enzyme Activity (relative to DMSO controls)
T10 construct: purchased Reaction Biology Corp
Description: as §1

[11] = molecular target: T11, panel of 371 human kinases (Homo sapiens, UniProt P51451); experiment: as above; assay type: biochemical; conditions: BLK; 0.1 μM; 10 μM ATP; read-out: % Enzyme Activity (relative to DMSO controls)
T11 construct: purchased Reaction Biology Corp
Description: as §1

[12] = molecular target: T12, panel of 371 human kinases (Homo sapiens, UniProt Q00535); experiment: as above; assay type: biochemical; conditions: 0.1 μM, 10 μM ATP, read-out: % Enzyme Activity (relative to DMSO controls)
T12 construct: purchased Reaction Biology Corp
Description: as §1

[13] = molecular target: T13, panel of 371 human kinases (Homo sapiens, UniProt Q6XUX3); experiment: as above; assay type: biochemical; conditions: RIPK5; 0.1 μM; 10 μM ATP; read-out: % Enzyme Activity (relative to DMSO controls)
T13 construct: purchased Reaction Biology Corp
Description: as §1

[14] = molecular target: T14, panel of 371 human kinases (Homo sapiens, UniProt Q8TF76); experiment: as above; assay type: biochemical; conditions: Haspin; 0.1 μM; 10 μM ATP; read-out: % Enzyme Activity (relative to DMSO controls)
T14 construct: purchased Reaction Biology Corp
Description: as §1

[15] = molecular target: T15, panel of 371 human kinases (Homo sapiens, UniProt Q9H0K1); experiment: as above; assay type: biochemical; conditions: SIK2; 0.1 μM; 10 μM ATP; read-out: % Enzyme Activity (relative to DMSO controls)
T15 construct: purchased Reaction Biology Corp
Description: as §1

[16] = molecular target: T16, panel of 371 human kinases (Homo sapiens, UniProt Q9HC98); experiment: as above; assay type: biochemical; conditions: NEK6; 0.1 μM; 10 μM ATP; read-out: % Enzyme Activity (relative to DMSO controls)
T16 construct: purchased Reaction Biology Corp
Description: as §1

[17] = molecular target: T17, panel of 371 human kinases (Homo sapiens, UniProt Q9NR20); experiment: as above; assay type: biochemical; conditions: DYRK4; 0.1 μM; 10 μM ATP; read-out: % Enzyme Activity (relative to DMSO controls)
T17 construct: purchased Reaction Biology Corp
Description: as §1

[18] = molecular target: T18, panel of 371 human kinases (Homo sapiens, UniProt Q9NYY3); experiment: as above; assay type: biochemical; conditions: PLK2; 0.1 μM; 10 μM ATP; read-out: % Enzyme Activity (relative to DMSO controls)
T18 construct: purchased Reaction Biology Corp
Description: as §1

[19] = molecular target: T19, panel of 371 human kinases (Homo sapiens, UniProt Q9Y243); experiment: as above; assay type: biochemical; conditions: AKT3; 0.1 μM; 10 μM ATP; read-out: % Enzyme Activity (relative to DMSO controls)
T19 construct: purchased Reaction Biology Corp
Description: as §1

N9 microglial cells = experiment: TNFα release by LPS-stimulated microglia (ELISA); assay type: cell-based, mouse; conditions: for TNFα secretion in LPS-stimulated microglia: LPS 0.1-5 μM, 24 h
Method: To model microglial activation in vitro, we stimulated mouse N9 microglial cells with increasing concentrations of E. coli-derived lipopolysaccharides (LPS) (0.1-5 μM) to measure release of the pro-inflammatory cytokine TNFα into cell culture media.
Cultures were maintained in DMEM containing FBS (10%, Life Technologies) and Glutamax (1%, Life Technologies). […] N9 cells remaining in the culture dishes were treated with AlamarBlue (Thermo Fisher) to assess viability. 5 μL AlamarBlue was added to each well (containing 50 μL culture media) and incubated for 4 h at 37°.

T2 sequence (O95819 whole entry): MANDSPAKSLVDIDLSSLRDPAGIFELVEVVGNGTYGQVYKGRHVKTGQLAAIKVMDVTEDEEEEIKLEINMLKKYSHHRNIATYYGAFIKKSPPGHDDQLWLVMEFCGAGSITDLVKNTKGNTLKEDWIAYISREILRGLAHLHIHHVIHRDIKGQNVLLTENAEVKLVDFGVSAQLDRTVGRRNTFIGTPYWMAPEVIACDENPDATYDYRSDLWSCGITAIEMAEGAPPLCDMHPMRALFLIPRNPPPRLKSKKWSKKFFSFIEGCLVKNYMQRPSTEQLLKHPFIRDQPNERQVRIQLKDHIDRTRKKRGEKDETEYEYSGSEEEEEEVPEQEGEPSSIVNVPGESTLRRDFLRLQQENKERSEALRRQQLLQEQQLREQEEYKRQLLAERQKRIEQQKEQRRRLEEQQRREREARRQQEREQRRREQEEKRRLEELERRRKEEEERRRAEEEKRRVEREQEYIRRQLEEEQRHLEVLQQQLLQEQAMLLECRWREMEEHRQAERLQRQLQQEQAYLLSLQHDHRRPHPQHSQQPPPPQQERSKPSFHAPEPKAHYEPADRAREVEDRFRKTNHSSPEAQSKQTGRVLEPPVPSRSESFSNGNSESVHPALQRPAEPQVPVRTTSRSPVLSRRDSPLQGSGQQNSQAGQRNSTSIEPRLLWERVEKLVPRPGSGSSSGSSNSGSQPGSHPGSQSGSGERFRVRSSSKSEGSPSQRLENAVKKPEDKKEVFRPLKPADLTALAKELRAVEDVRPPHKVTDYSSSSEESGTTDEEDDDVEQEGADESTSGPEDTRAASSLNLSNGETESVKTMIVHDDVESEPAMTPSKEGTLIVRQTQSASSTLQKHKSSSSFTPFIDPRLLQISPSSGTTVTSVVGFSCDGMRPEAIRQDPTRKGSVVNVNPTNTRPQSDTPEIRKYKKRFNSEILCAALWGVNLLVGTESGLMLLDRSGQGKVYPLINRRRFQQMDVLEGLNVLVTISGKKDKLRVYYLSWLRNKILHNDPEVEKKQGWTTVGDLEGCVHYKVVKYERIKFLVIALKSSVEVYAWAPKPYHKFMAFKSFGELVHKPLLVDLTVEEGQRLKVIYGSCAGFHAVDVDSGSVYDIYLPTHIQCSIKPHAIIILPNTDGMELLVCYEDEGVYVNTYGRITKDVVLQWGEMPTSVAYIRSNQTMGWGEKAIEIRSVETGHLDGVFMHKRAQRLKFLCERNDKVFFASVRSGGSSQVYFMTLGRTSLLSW
T12 sequence (Q00535 whole entry): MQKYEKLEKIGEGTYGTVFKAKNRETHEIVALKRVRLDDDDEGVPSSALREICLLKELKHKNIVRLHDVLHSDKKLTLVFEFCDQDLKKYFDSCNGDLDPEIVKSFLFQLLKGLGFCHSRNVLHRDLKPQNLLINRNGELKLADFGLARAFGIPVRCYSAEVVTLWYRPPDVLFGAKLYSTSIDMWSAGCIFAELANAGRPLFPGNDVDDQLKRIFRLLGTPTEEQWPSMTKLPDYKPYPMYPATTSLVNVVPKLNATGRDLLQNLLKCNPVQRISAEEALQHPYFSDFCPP
T19 sequence (Q9Y243 whole entry): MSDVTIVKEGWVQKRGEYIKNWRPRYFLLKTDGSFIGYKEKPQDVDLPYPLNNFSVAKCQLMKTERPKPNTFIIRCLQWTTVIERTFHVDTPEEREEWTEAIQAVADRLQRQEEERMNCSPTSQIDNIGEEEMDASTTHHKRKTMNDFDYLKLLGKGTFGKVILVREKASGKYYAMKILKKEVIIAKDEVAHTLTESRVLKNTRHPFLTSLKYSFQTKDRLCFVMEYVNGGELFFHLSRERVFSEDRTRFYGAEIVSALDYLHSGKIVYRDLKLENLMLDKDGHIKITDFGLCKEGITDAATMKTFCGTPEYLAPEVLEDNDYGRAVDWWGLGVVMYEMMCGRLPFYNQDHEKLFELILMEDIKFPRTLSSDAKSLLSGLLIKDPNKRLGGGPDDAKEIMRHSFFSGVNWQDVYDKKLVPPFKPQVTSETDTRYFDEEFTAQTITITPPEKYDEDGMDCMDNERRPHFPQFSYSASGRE
T4 sequence (P04049 whole entry): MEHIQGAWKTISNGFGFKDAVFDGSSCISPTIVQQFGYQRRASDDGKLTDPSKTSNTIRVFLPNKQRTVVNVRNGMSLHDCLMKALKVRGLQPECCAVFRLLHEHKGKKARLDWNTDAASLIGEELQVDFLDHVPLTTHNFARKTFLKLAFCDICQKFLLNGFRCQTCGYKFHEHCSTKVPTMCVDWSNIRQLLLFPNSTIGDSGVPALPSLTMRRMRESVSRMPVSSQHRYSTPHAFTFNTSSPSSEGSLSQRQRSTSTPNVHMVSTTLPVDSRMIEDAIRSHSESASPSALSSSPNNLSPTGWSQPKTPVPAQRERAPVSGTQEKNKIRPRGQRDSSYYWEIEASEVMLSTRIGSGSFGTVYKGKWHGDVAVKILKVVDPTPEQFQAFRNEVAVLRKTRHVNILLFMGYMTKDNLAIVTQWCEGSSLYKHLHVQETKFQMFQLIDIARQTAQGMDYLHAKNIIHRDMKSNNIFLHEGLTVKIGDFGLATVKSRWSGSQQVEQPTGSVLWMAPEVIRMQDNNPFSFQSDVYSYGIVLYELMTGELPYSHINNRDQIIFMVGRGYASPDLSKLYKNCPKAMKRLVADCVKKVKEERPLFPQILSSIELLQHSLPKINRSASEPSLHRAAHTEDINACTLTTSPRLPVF
T10 sequence (P30530 26-894): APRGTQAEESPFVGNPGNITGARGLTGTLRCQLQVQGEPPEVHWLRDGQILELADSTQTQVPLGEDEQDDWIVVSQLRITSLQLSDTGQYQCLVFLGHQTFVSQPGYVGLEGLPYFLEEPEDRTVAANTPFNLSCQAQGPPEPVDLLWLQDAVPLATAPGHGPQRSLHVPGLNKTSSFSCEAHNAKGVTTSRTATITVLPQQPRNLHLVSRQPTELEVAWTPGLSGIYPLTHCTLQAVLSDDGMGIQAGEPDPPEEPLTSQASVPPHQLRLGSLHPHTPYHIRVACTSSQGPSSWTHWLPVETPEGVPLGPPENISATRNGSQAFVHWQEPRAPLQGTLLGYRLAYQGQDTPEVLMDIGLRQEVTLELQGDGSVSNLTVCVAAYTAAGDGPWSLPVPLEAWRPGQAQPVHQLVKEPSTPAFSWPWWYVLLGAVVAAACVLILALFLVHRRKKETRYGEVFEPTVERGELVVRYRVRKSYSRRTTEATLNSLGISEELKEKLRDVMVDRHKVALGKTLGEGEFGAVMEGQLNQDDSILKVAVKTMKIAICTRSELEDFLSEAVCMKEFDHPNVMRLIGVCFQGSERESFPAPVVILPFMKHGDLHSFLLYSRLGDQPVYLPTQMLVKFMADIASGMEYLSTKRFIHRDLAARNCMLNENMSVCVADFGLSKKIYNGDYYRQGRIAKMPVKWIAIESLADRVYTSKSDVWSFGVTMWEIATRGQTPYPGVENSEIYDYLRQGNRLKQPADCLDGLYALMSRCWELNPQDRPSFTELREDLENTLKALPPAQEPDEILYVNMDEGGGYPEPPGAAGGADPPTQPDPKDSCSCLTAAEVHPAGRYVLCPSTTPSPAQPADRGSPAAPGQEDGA
T6 sequence (P07333 20-972): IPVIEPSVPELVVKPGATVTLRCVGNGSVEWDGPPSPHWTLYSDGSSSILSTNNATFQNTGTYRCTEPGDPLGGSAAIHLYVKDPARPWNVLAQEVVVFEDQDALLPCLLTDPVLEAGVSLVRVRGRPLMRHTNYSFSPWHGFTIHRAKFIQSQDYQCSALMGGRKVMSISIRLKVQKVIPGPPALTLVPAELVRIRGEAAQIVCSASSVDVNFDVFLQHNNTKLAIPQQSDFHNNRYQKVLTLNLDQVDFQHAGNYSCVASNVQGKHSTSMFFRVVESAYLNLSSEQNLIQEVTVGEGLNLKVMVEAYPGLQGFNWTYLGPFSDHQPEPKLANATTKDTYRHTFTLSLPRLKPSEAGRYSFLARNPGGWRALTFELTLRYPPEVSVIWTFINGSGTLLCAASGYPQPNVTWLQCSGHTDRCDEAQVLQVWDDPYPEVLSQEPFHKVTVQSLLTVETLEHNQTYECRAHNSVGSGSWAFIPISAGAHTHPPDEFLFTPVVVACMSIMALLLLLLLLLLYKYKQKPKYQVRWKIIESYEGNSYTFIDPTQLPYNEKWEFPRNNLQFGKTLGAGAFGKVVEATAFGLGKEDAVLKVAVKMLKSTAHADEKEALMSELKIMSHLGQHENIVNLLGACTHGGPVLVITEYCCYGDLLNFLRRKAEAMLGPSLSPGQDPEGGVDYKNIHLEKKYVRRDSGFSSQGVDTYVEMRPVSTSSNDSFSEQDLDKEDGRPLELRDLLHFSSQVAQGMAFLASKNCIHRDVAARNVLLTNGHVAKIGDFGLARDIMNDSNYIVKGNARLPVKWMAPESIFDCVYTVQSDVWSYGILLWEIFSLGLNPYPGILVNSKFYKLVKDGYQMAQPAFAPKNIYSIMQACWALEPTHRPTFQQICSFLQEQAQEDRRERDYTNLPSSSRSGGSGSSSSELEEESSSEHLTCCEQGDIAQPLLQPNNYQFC
T17 sequence (Q9NR20 whole entry): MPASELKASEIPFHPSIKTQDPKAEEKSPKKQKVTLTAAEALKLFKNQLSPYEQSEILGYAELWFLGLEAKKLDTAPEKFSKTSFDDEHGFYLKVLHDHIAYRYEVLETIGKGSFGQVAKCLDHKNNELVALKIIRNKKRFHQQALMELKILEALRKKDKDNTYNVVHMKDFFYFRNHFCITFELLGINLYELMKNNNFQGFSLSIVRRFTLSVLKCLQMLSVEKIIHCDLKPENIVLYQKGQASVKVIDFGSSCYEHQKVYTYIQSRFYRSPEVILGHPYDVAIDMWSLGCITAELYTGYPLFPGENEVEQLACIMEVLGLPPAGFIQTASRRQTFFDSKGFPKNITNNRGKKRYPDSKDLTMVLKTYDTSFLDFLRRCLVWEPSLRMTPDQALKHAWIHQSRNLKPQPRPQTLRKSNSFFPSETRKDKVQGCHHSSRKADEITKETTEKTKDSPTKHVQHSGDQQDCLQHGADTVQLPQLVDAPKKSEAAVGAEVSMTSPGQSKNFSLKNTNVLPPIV

SMILES	remaining activity at 0.1 µM [1] [%]	remaining activity at 0.1 µM [2] [%]	remaining activity at 0.1 µM [3] [%]	remaining activity at 0.1 µM [4] [%]	remaining activity at 0.1 µM [5] [%]	remaining activity at 0.1 µM [6] [%]	remaining activity at 0.1 µM ([7]; CDK2/cyclin A1) [%]	remaining activity at 0.1 µM ([7]; CDK2/cyclin A) [%]	remaining activity at 0.1 µM ([7]; CDK2/cyclin E2) [%]	remaining activity at 0.1 µM ([7]; CDK2/cyclin E) [%]	remaining activity at 0.1 µM ([7]; CDK2/cyclin O) [%]	remaining activity at 0.1 µM [8] [%]	remaining activity at 0.1 µM [9] [%]	remaining activity at 0.1 µM [10] [%]	remaining activity at 0.1 µM [11] [%]	remaining activity at 0.1 µM ([12]; CDK5/p25) [%]	remaining activity at 0.1 µM ([12]; CDK5/p35) [%]	remaining activity at 0.1 µM [13] [%]	remaining activity at 0.1 µM [14] [%]	remaining activity at 0.1 µM [15] [%]	also measured
OCCN1CCN(Cc2ccc(-c3cnc4[nH]cc(-c5cccc(Cl)c5)c4c3)cc2)CC1 [Compound 12k, 2-(4-(4-(3-(3-Chlorophenyl)-1H-pyrrolo[2,3-b]pyridin-5-yl)benzyl)piperazin-1-yl)ethan-1-ol]	92.3	1.35	76.7	105	75.4	26.8	87.1	83.1	89.6	98.3	82.5	92.8	98.3	39.8	101	75.9	79.2	73.4	75	59.8	fold change in HGK activity following 12k exposure relative to 1 ([2]; 0.025 μM): 14.92 fold; remaining activity at 0.1 µM [16]: 95.1%; remaining activity at 0.1 µM [17]: 101%; remaining activity at 0.1 µM [18]: 101%; remaining activity at 0.1 µM [19]: 97.2%; potency in TNFα release assay relative to compound 1 (times less potent) (N9 microglial cells): ~5 ×; TNFα secretion in LPS-stimulated microglia (N9 microglial cells): significantly decreased TNFα secretion
CN1CCN(Cc2ccc(-c3cnc4[nH]cc(-c5ccc6[nH]ccc6c5)c4c3)cc2)CC1 [Compound 1, 3-(1H-Indol-5-yl)-5-(4-((4-methylpiperazin-1-yl)methyl)phenyl)-1H-pyrrolo[2,3-b]pyridine, reference compound]	78.5	20.2	68.2	104	69.2	85.4	94.2	90.2	110	96.1	102	86	88.6	35.8	99.5	79.7	81.3	75.6	128	83.2	remaining activity at 0.1 µM [16]: 92.7%; remaining activity at 0.1 µM [17]: 111%; remaining activity at 0.1 µM [18]: 97.2%; remaining activity at 0.1 µM [19]: 98.4%; TNFα secretion in LPS-stimulated microglia (N9 microglial cells): significantly and dose-dependently decreased TNFα secretion

From patent US12227500B2, “Substituted pyrrolo[2,3-b]pyridines for suppressing toxic endoplasmic reticulum stress” (THE TRUSTEES OF COLUMBIA UNIVERSITY IN THE CITY OF NEW YORK, priority 2018, dated 2025)
